In PMC6429183, “Identification of Compounds That Inhibit Estrogen-Related Receptor Alpha Signaling Using High-Throughput Screening Assays” (Molecules, 2019):
Where “and” joins values, the source holds several entries; their conditions need not be identical. Equal entries are not always repeated. Where two headings read alike, the source gives them in different places.

Key:
COX8α = test: qRT-PCR mRNA expression of ERR downstream gene COX8α; type: cell-based; conditions: ERR reporter cells, vs GAPDH, DMSO = 0%
Protocol: (§1) Total RNA was isolated from treated ERR reporter cells using an RNeasy Mini Kit (Qiagen, Germantown, MD, USA), homogenized using a QIAshredder (Qiagen), and reverse transcribed with a High-Capacity RNA-to-cDNA™ Kit (ThermoFisher Scientific, Inc.) following the manufacturers’ instructions. Expression of ERRα, COX8α, IDH3α, PPARα, COX4I1, and cytochrome c genes was normalized against GAPDH. All primers were purchased from ThermoFisher Scientific, Inc. Real-time PCR assays were performed in 384-well plates on a QuantStudio 5 (Applied Biosystems, Foster City, CA, USA) with TaqMan™ Gene Expression Master Mix (ThermoFisher Scientific, Inc.). Induction values were calculated using the equation: Fold = 2^ΔΔCt, where ΔCt represents the differences in cycle threshold numbers between each of the target genes and GAPDH, and ΔΔCt represents the relative change in these differences between control and treatment groups. Experimental data are presented as a mean of triplicate determinations ± SD. Statistical comparisons were made by t-test, while the statistical significance was set at p values of <0.05 (light blue), <0.01 (medium blue), and <0.001 (dark blue).

IDH3α = test: qRT-PCR mRNA expression of ERR downstream gene IDH3α; type: cell-based; conditions: ERR reporter cells, vs GAPDH, DMSO = 0%
Protocol: as §1

COX4I1 = test: qRT-PCR mRNA expression of ERR downstream gene COX4I1; type: cell-based; conditions: ERR reporter cells, vs GAPDH, DMSO = 0%
Protocol: as §1, with “Experimental data are presented as a mean of triplicate determinations ± SD. Statistical comparisons were made by t-test, while the statistical significance was set at p values of <0.05 (light blue), <0.01 (medium blue), and <0.001 (dark blue).” left out

cytochrome c = test: qRT-PCR mRNA expression of ERR downstream gene cytochrome c; type: cell-based; conditions: ERR reporter cells, vs GAPDH, DMSO = 0%
Protocol: as §1

[1] = test system: Nrf2/antioxidant response element (ARE); test: Nrf2/ARE-HepG2 β-lactamase reporter agonist assay; type: cell-based; conditions: agonist mode, heatmap outcome
Protocol: After the assay plates were incubated at 37 °C for 5–6 h, 23 nL of compounds dissolved in DMSO or positive controls were transferred to the assay plates via a Wako Pintool station (Wako). Except for ARE and p53, all other assays received 1 µL/well agonist (10 nM R1881 for AR; 0.5 and 5 nM β-estradiol for ERα and ERβ respectively; 300 µM CDCA for FXR; 50 nM Rosiglitazone for PPARγ; and 5 nM R5020 for PR) or assay medium using a Flying Reagent Dispenser (FRD). The assay plates were incubated for 16 h (AR, Nrf2/ARE, ERβ, FXR, p53, and PR), 17 h (PPARγ), or 18 h (ERα) at 37 °C, and 1 µL/well LiveBLAzer™ FRET-B/G CCF4-AM substrate (ThermoFisher Scientific, Inc.) detection mix was added using an FRD and the plates were incubated at room temperature for 2 h. […] Data were expressed as the ratio of 460/530 nm emission values.

[2] = test system: ERR reporter HEK293 cells; test: CellTiter-Fluor cell viability assay multiplexed with ERR reporter assay; type: cell-based; conditions: Homo sapiens, HEK293
Protocol: (§2) ERR or PGC/ERR reporter HEK293 cells suspended in culture medium without puromycin were dispensed at 2500 cells/5 μL/well in tissue culture–treated 1536-well white assay plates (Greiner Bio-One North America, Monroe, NC, USA) using a Thermo Scientific Multidrop Combi (ThermoFisher Scientific, Inc.). […] After the cells were incubated at 37 °C with 5% CO2 for 6 h, 23 nL of compounds or control, XTC790, was transferred into the assay plates using a Wako Pintool station (Wako Automation, San Diego, CA, USA). The assay plates were incubated at 37 °C for 18 h, followed by the addition of 5 μL ONE-Glo luciferase reagent (Promega, Madison, WI, USA) using a Flying Reagent Dispenser (Aurora Discovery, Carlsbad, CA, USA). After 30 min of incubation at room temperature, the luminescence intensity of the assay plates was quantified using a ViewLux plate reader (PerkinElmer, Shelton, CT, USA). The assays were performed three times for each compound concentration. These ERR and PGC/ERR reporter assays were multiplexed with the CellTiter-Fluor Cell Viability Assay (Promega), a fluorescence-based cell viability assay, to assess compound cytotoxicity.
The qHTS data were analyzed as described previously. […] The DMSO-only compound plates at the beginning and end of the compound plate stack were used to correct the data set by applying an in-house pattern correction algorithm. The half maximum inhibition values (IC50) for each compound and maximum response (efficacy) values were obtained by fitting the concentration-response curves of each compound to a four-parameter Hill equation [91]. […] For each reading, the activity outcome of a test compound was first categorized by the average curve rank from the triplicate runs and the reproducibility calls. The final activity outcome of each compound was based on the ERR antagonist readout activity and cell viability counter screen.

[3] = test system: PGC/ERR reporter HEK293 cells; test: CellTiter-Fluor cell viability assay multiplexed with PGC/ERR reporter assay; type: cell-based; conditions: Homo sapiens
Protocol: as §2
The qHTS data were analyzed as described previously. Each titration point was normalized relative to the positive control compound (XCT790 = −100%) and DMSO-only wells (0%) according to the following equation: % Activity = [(Vcompound − VDMSO)/(VDMSO − Vpos)] × 100, where Vcompound denotes the compound well values, Vpos denotes the median value of the positive control wells, and VDMSO denotes the median values of the DMSO-only wells. The DMSO-only compound plates at the beginning and end of the compound plate stack were used to correct the data set by applying an in-house pattern correction algorithm. The half maximum inhibition values (IC50) for each compound and maximum response (efficacy) values were obtained by fitting the concentration-response curves of each compound to a four-parameter Hill equation [91]. Compounds were designated as Class 1–4 according to the type of concentration–response curve observed. For each reading, the activity outcome of a test compound was first categorized by the average curve rank from the triplicate runs and the reproducibility calls. The final activity outcome of each compound was based on the ERR antagonist readout activity and cell viability counter screen.

PPARα = test: qRT-PCR mRNA expression of ERR downstream gene PPARα; type: cell-based; conditions: ERR reporter cells, vs GAPDH, DMSO = 0%
[4] = target: T1, ERRα with PGC-1α (PGC/ERR pathway) (Homo sapiens, UniProt P11474); test: PGC/ERR reporter (luciferase) qHTS assay, PGC/ERR-HEK293; conditions: for EC50: mean ± SD, triplicate
T1 sequence (P11474 1-423): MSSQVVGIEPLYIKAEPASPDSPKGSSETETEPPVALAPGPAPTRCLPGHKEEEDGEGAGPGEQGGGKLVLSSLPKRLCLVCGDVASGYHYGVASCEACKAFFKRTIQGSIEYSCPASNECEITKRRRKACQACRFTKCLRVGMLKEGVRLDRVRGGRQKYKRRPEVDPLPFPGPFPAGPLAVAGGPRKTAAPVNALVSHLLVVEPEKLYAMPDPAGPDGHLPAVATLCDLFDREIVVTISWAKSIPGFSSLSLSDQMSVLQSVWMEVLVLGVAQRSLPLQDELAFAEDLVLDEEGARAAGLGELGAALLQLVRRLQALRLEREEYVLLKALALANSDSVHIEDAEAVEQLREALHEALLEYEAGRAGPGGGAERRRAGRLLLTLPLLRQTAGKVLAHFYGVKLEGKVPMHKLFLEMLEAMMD
Protocol: (§3) The ERR reporter HEK293 cells were cultured in high glucose DMEM medium (ThermoFisher Scientific, Inc., Waltham, MA, USA) supplemented with 10% fetal bovine serum (FBS; ThermoFisher Scientific, Inc.), 4 mM of L-glutamine (ThermoFisher Scientific, Inc.), 1 mM of sodium pyruvate (ThermoFisher Scientific, Inc.), 100 U/mL of penicillin and 100 mg/mL of streptomycin (ThermoFisher Scientific, Inc.). PGC/ERR reporter HEK293 cells were cultured in the same medium as the ERR reporter HEK293 cells with an additional 1 μg/mL puromycin (ThermoFisher Scientific, Inc.) as the selection marker for PGC-1α expression.
(§4) The DMSO-only compound plates at the beginning and end of the compound plate stack were used to correct the data set by applying an in-house pattern correction algorithm [90]. The half maximum inhibition values (IC50) for each compound and maximum response (efficacy) values were obtained by fitting the concentration-response curves of each compound to a four-parameter Hill equation [91]. […] For each reading, the activity outcome of a test compound was first categorized by the average curve rank from the triplicate runs and the reproducibility calls. The final activity outcome of each compound was based on the ERR antagonist readout activity and cell viability counter screen.

[5] = target: T2, estrogen-related receptor alpha (ERRα) (Homo sapiens, UniProt P11474); test: ERR reporter (luciferase) antagonist qHTS assay, ERR-HEK293
T2 sequence (P11474 1-423): T1 sequence (P11474 1-423)
Protocol: as §3, §4

Acriflavine hydrochloride was tested, and the “Percent inhibition of mRNA gene expression, COX8α” value (“Percent inhibition … COX8α” for short) (COX8α; 3 µM) was 30.2 ± 18.2%, the “Percent inhibition of mRNA gene expression, IDH3α” value (“Percent inhibition … IDH3α” for short) (IDH3α; 3 µM) was 74.2% and 74.2 ± 9.92% and the “Percent inhibition of mRNA gene expression, COX4I1” value (“Percent inhibition … COX4I1” for short) (COX4I1; 3 µM) was 4.76 ± 8.24%. For the same compound, the “Percent inhibition of mRNA gene expression, Cytochrome C” value (from here on “Percent inhibition … Cytochrome C”) (cytochrome c; 3 µM) was 41.8% and 41.8 ± 3.72% and the “activity in the Nrf2-ARE assay” value [1] was “inconclusive”.
`CC(C)C[C@H](NC(=O)[C@H](CCc1ccccc1)NC(=O)CN1CCOCC1)C(=O)N[C@@H](Cc1ccccc1)C(=O)N[C@@H](CC(C)C)C(=O)[C@@]1(C)CO1` [Carfilzomib] showed an EC50 ([2]; follow-up screen, viability, read-out: ERR-HEK293 Follow-Up Viability EC50 (converted)) of 274 nM, an EC50 ([2]; primary qHTS, viability counter screen, read-out: ERR-HEK293 Primary Viability EC50 (converted)) of 178 nM and an EC50 ([3]; HEK293, follow-up screen, read-out: PGC/ERR-HEK293 Follow-Up Viability EC50 (converted)) of 471 nM. For the same compound, the EC50 ([3]; HEK293, primary qHTS, read-out: PGC/ERR-HEK293 Primary Viability EC50 (converted)) was 1360 nM, the “Percent inhibition … COX8α” value (COX8α; 60 nM) was 39.6% and 39.6 ± 1.81% and the “Percent inhibition … IDH3α” value (IDH3α; 60 nM) was 1.73 ± 0.76%. For the same compound, the “Percent inhibition of mRNA gene expression, PPARα” value (PPARα; 60 nM) was 7.39 ± 4.61%, the “Percent inhibition … COX4I1” value (COX4I1; 60 nM) was 37.8 ± 5.12% and the “Percent inhibition … Cytochrome C” value (cytochrome c; 60 nM) was 44.2% and 44.2 ± 0.70%. The “activity in the Nrf2-ARE assay” value [1] was “active agonists”, the EC50 ([4]; PGC/ERR-HEK293 Follow-Up EC50, follow-up screen) was 189 ± 39.6 nM and the EC50 ([4]; PGC/ERR-HEK293 Primary EC50, primary qHTS, 18 h) was 61.5 ± 19.8 nM. The “PGC/ERR-HEK293 Follow-Up Efficacy” value ([4]; follow-up screen, negative = antagonism, positive = agonism) was −150 ± 8.02%, the “activity in the ERR/PGC assay” value ([4]; in words) was “antagonism” and the “PGC/ERR-HEK293 Primary Efficacy” value ([4]; primary qHTS, negative = antagonism, positive = agonism) was −121 ± 7.36%. For the same compound, the EC50 ([5]; ERR-HEK293 Follow-Up EC50, follow-up (confirmation) screen, mean ± SD, triplicate) was 61.7 ± 7.86 nM, the EC50 ([5]; ERR-HEK293 Primary EC50, primary qHTS, 18 h, 15 concentrations, mean ± SD, triplicate) was 55.2 ± 3.74 nM and the “ERR-HEK293 Follow-Up Efficacy” value ([5]; follow-up screen, relative to XCT790 = −100%) was −126 ± 10.9%. The EC50 ([5]; potency, ERR antagonist assay, primary screen) was 55 nM and the “ERR-HEK293 Primary Efficacy” value ([5]; primary qHTS, relative to XCT790 = −100%, DMSO = 0%) was −107% and −107 ± 2.77%.
In the case of `COc1cc(/C=C(\C#N)C(=O)Nc2nnc(C(F)(F)F)s2)ccc1OCc1ccc(C(F)(F)F)cc1C(F)(F)F` [XCT790], the “Percent inhibition … COX8α” value (COX8α; 12 µM, mean ± S.D.) is reported as 65.0 ± 8.41%, the “Percent inhibition … IDH3α” value (IDH3α; 12 µM) is reported as 42.6 ± 6.59% and the “Percent inhibition of mRNA gene expression, PPARα” value (PPARα; 12 µM) is reported as 16.0 ± 1.70%. The “Percent inhibition … COX4I1” value (COX4I1; 12 µM) was 46.0 ± 2.16% and the “Percent inhibition … Cytochrome C” value (cytochrome c; 12 µM) was 60.8 ± 2.16%.
